Counter-ions that a name gives are not always drawn. Like-named read-outs stand apart in the source and are kept apart here. One block for each molecule: values may come before it.
How the values were obtained:
[1] = biological target: T1, OAT3 (Mus musculus, UniProt O88909); assay: Plasma metabolomics profiling of Oat3KO versus wild-type mice; conditions: Oat3KO vs wild type mice
T1 sequence (O88909 1-537): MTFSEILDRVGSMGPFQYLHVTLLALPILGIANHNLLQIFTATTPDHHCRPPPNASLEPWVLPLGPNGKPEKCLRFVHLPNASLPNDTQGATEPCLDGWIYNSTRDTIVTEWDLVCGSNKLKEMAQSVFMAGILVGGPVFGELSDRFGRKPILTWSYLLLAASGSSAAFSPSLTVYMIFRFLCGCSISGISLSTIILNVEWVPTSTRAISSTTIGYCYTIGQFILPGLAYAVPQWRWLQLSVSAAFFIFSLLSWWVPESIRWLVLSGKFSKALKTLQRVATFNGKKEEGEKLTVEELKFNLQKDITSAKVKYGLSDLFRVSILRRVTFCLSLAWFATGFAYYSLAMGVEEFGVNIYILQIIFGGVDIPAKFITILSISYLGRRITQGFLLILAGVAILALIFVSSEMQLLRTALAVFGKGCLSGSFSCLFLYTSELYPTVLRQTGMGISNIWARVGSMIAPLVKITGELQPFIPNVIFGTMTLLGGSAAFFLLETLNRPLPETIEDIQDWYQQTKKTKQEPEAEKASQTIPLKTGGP

[2] = biological target: T2, OAT1 (Mus musculus, UniProt Q8VC69); assay: Uptake inhibition assay in Oat1-transfected CHO cells (6-carboxyfluorescein tracer); format: cell-based; parameters: expressed in transfected cells; host or cells: CHO cells; conditions: for Ki: read-out: calculated Ki; for interaction with OAT1 in in vitro assays: set of 8 predicted metabolites tested
T2 sequence (Q8VC69 1-545): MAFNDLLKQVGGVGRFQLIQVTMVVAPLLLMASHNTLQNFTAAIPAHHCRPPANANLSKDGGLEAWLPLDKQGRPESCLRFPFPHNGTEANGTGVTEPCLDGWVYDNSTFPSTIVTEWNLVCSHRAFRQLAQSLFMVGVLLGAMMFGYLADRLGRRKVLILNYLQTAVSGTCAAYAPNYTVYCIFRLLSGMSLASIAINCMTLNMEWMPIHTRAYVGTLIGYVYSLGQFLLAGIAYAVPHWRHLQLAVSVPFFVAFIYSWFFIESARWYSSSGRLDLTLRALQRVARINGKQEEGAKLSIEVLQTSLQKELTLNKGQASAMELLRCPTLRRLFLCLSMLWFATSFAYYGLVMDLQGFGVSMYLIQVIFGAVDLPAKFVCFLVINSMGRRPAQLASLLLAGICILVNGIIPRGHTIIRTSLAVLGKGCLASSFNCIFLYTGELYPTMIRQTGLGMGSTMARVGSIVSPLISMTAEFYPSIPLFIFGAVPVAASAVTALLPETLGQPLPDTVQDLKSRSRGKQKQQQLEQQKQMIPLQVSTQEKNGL
Description: (A) The IC50 curves for the metabolites characterized in the in vitro uptake inhibition assay using CHO stably expressing Oat1. […] (B) The table summarizes the calculated Ki and metabolic pathways the characterized metabolites were involved in.
Oat1-transfected CHO cells cultured on 96-well plates were incubated in the presence of 10 μM 6-carboxyfluorescein with or without individual metabolites (with controls treated with the OAT1 inhibitor probenecid). The IC50 curves for novel ligands were plotted in Prism Software (GraphPad Inc., San Diego, Calif.), and the IC50 values were converted to Ki (inhibition affinity) using the Cheng-Prusoff equation.

[3] = biological target: T1, OAT3; assay: cell-based
[4] = biological target: T2, OAT1; assay: Uptake inhibition assay, CHO cells constitutively expressing mouse Oat1; conditions: 6-carboxyfluorescein as fluorescent tracer
[5] = biological target: T1, OAT3; conditions: OAT3-expressing cells; 5-carboxyfluorescein as fluorescent tracer
[6] = biological target: T2, OAT1; assay: cell-based
[7] = biological target: T1, OAT3; conditions: in vivo
[8] = biological target: T2, OAT1
[9] = biological target: T2, OAT1; conditions: OAT1 vs OAT3; cited from earlier work
[10] = statistical significance not achieved

Molecule: O=C(O)CCCCCCCCC(=O)O [sebacate]
change in plasma of the Oat3KO [1]: altered

change in plasma of the Oat3KO [1]: altered
Molecule: CCCC(O)CC(=O)O (stereo not drawn) [3-hydroxyhexanoate]

increase in plasma of the Oat3KO ([1]; significantly altered): more than 7 fold
Molecule: equol sulfate

Ki [2]: 93 µM
interaction with OAT1 in in vitro assays [2]: directly interacting with OAT1
Molecule: Nc1nc2c(c(=O)[nH]1)N=C(CNc1ccc(C(=O)N[C@@H](CCC(=O)O)C(=O)O)cc1)CN2 [dihydrofolic acid]

change in plasma of the Oat3KO [1, 10]: increased
Molecule: C[C@H](CCC(=O)O)[C@H]1CC[C@H]2[C@@H]3[C@H](O)C[C@@H]4C[C@H](O)CC[C@]4(C)[C@H]3CC[C@]12C [chenodeoxycholate]

change in plasma of the Oat3KO [1, 10]: increased over ten-fold
Molecule: C[C@H](CCC(=O)NCCS(=O)(=O)O)[C@H]1CC[C@H]2[C@@H]3CC[C@@H]4C[C@H](O)CC[C@]4(C)[C@H]3C[C@H](O)[C@]12C [taurodeoxycholate]

increase in plasma of the Oat3KO ([1]; did not reach statistical significance): ~30 fold
Molecule: C[C@H](CCC(=O)NCCS(=O)(=O)O)[C@H]1CC[C@H]2[C@@H]3[C@H](O)C[C@@H]4C[C@H](O)CC[C@]4(C)[C@H]3CC[C@]12C [taurochenodeoxycholate]

IC50 [3]: 33 µM
Molecule: CCCN(CCC)S(=O)(=O)c1ccc(C(=O)O)cc1 [Probenecid]

increase in plasma of the Oat3KO ([1]; significantly altered): ~160 fold
Molecule: C[C@H](CCC(=O)O)[C@H]1CC[C@H]2[C@@H]3[C@H](O)C[C@@H]4C[C@H](O)CC[C@]4(C)[C@H]3C[C@H](O)[C@]12C [cholate]

Molecule: CCCCN(CCCC)CCC(O)c1cc2c(Cl)cc(Cl)cc2c2cc(C(F)(F)F)ccc12 (stereo not drawn) [Halofantrine]
IC50 OAT1 [4]: No inhibition
IC50 OAT3 [5]: No inhibition

change in plasma of the Oat3KO [1]: significantly increased
Molecule: O=S(=O)(O)Oc1ccccc1 [phenol sulfate]

change in plasma of the Oat3KO [1]: accumulate in the plasma
Molecule: O=C(O)c1c[nH]c2ccccc12 [indole-3-carboxylic acid]

Molecule: O=C(O)CCCCCCCCCCCCCCCO [16-hydroxy-hexadecanoic acid]
Ki [2]: 13 µM
interaction with OAT1 in in vitro assays [2]: directly interacting with OAT1

change in plasma of the Oat3KO [1]: significantly increased
Molecule: C[C@H](CCC(=O)O)[C@H]1CC[C@H]2[C@@H]3[C@@H](O)C[C@@H]4C[C@H](O)CC[C@]4(C)[C@H]3CC[C@]12C [ursodeoxycholate]

IC50 [6]: 807 µM
IC50 [3]: 198 µM
Molecule: NC(=O)C(c1ccccc1)(c1ccccc1)[C@@H]1CCN(CCc2ccc3c(c2)CCO3)C1 [Darifenacin]

change in plasma of the Oat3KO [1]: altered
Molecule: O=C(O)CCCCCCCCCCCCC(=O)O [tetradecanedioate]

change in plasma of the Oat3KO [1]: accumulate in the plasma
Molecule: NCCc1c[nH]c2ccc(O)cc12 [serotonin]

change in plasma of the Oat3KO [1, 10]: increased over ten-fold
Molecule: C[C@H](CCC(=O)NCCS(=O)(=O)[O-])[C@H]1CC[C@H]2[C@@H]3C[C@H](O)[C@@H]4C[C@H](O)CC[C@]4(C)[C@H]3CC[C@]12C.[Na+] [taurohyodeoxycholic acid]

change in plasma of the Oat3KO [1]: accumulate in the plasma
Molecule: CC(=O)N[C@@H](Cc1c[nH]c2ccccc12)C(=O)O [N-acetyltryptophan]

increase in plasma of the Oat3KO ([1]; significantly altered): more than 42 fold
Molecule: equol glucuronide

change in plasma of the Oat3KO [1]: altered
Molecule: CCCCCCCCC(O)C(=O)O (stereo not drawn) [2-hydroxydecanoate]

change in plasma of the Oat3KO [1, 10]: increased over ten-fold
Molecule: C[C@H](CCC(=O)NCCS(=O)(=O)O)[C@H]1CC[C@H]2[C@@H]3[C@@H](O)C[C@@H]4C[C@H](O)CC[C@]4(C)[C@H]3CC[C@]12C [tauroursodeoxycholate]

Molecule: Cc1ccc(O[C@@H]2O[C@H](C(=O)O)[C@@H](O)[C@H](O)[C@H]2O)cc1 [p-cresol-glucuronide]
change in plasma of the Oat3KO [1]: significantly increased

change in plasma of the Oat3KO [1, 10]: increased
Molecule: C[C@H](CCC(=O)NCC(=O)O)[C@H]1CC[C@H]2[C@@H]3[C@H](O)C[C@@H]4C[C@H](O)CC[C@]4(C)[C@H]3C[C@H](O)[C@]12C [glycocholate]

change in plasma of the Oat3KO [1]: significantly increased
Molecule: Cc1ccc(OS(=O)(=O)O)cc1 [p-cresol sulfate]

increase in plasma of the Oat3KO ([1]; significantly altered): over 24 fold
Molecule: C[C@H](CCC(=O)O)[C@H]1CC[C@H]2[C@@H]3[C@@H](O)[C@@H](O)[C@@H]4C[C@H](O)CC[C@]4(C)[C@H]3CC[C@]12C [beta-muricholate]

Molecule: O=S(=O)(O)Oc1c[nH]c2ccccc12 [3-indoxyl sulfate]
change in plasma of the Oat3KO [1]: accumulate in the plasma

Molecule: CCCCCC/C=C\CCCCCCCC(=O)O [palmitoleic acid]
Ki [2]: 200 µM
interaction with OAT1 in in vitro assays [2]: directly interacting with OAT1

change in plasma of the Oat3KO [1]: significantly increased
Molecule: C[C@H](CCC(=O)O)[C@H]1CC[C@H]2[C@@H]3C(=O)C[C@@H]4C[C@H](O)CC[C@]4(C)[C@H]3C[C@H](O)[C@]12C [7-ketodeoxycholate]

change in plasma of the Oat3KO [7]: accumulate in the plasma
Molecule: O=C(O)C(O)Cc1c[nH]c2ccccc12 (stereo not drawn) [indolelactate]

Molecule: CN(C)C(=O)C(CCN1CCC(O)(c2ccc(Cl)cc2)CC1)(c1ccccc1)c1ccccc1 [Loperamide]
IC50 OAT1 [4]: No significant
IC50 [3]: 95 µM

IC50 [3]: 169 µM
IC50 OAT1 [8]: No significant
Molecule: OC(CNCC(O)C1CCc2cc(F)ccc2O1)C1CCc2cc(F)ccc2O1 (stereo not drawn) [Nebivolol]

change in plasma of the Oat3KO [1]: accumulate in the plasma
Molecule: CC(=O)N[C@@H](CC(=O)c1ccccc1N)C(=O)O [N-acetylkynurenine]

change in plasma of the Oat3KO [1, 10]: increased
Molecule: C[C@H](CCC(=O)NCCS(=O)(=O)O)[C@H]1CC[C@H]2[C@@H]3[C@@H](O)[C@@H](O)[C@@H]4C[C@H](O)CC[C@]4(C)[C@H]3CC[C@]12C [tauro-beta-muricholate]

IC50 OAT1 [8]: No inhibition
IC50 OAT3 [5]: No ihhibition
Molecule: COc1cc(N)c(Cl)cc1C(=O)NC1CCN(CCCOc2ccc(F)cc2)CC1OC (stereo not drawn) [Cisapride]

Molecule: CN/C(=N/CCSCc1nc[nH]c1C)NC#N [cimetidine]
affinity for OAT1 compared to OAT3, fold less [9]: roughly 10 fold

Molecule: CCCCC[C@H](O)/C=C/[C@H]1[C@H](O)CC(=O)[C@@H]1CCCCCCC(=O)O [prostaglandin E1]
Ki [2]: 12 µM
interaction with OAT1 in in vitro assays [2]: directly interacting with OAT1

IC50 [6]: 1080 µM
IC50 [3]: 260 µM
Molecule: Cc1nc2n(c(=O)c1CCN1CCC(c3noc4cc(F)ccc34)CC1)CCCC2O (stereo not drawn) [Paliperidone]
